Experiments:
AP-1 = AP-1 transactivation, luciferase reporter in porcine RPE cells; type: cell-based
Description: (§1) Pig eyes were obtained from a local slaughterhouse and transported to the laboratory in ice-cold Ringer solution. After removal of the anterior segment of the eye, the vitreous and neural retina was separated from the RPE and removed. The eyecup was washed twice with phosphate buffer saline (PBS), filled with trypsin (0.25% in PBS) and incubated at 37°C for 1.5 h. RPE cells were harvested by gently pipetting, centrifuged to remove trypsin and re-suspended in Dulbecco’s Modified Eagle Medium (DMEM) supplemented with 20% (v/v) foetal-calf serum (DMEM20%FCS) and 0.1% gentamycin. Cells were seeded into 60 mm diameter Petri dishes, cultured in an atmosphere of 5% CO2/95% air at 37°C, and supplied with fresh medium after 24 hours and 4 days in vitro. For experiments aimed at measuring mRNA or protein expression in RPE, cells were trypsinized after one week in culture and transferred to 24-well or 6-well plates at a density of 1.5 × 10^5 cells/cm^2 in DMEM2%FCS. Norbixin or agonists were added to the medium 24 h after seeding, and antagonists were added to the medium 24 h later. A2E treatment was performed during 19 h before cellular sample preparation. All the drugs used in these experiments were prepared as stock solutions in DMSO.
After one week in culture, cells were trypsinized and transferred to a 96-well plate at a density of 6 × 10^4 cells/cm^2 in DMEM2%FCS. The next day, cells were transfected using the Cignal Reporter Assay Kits for PPAR, RXR, AP-1 and NF-κB, according to the manufacturer’s specifications. To measure the specific activation of PPAR isoforms, cells were also co-transfected with PPAR-α, PPAR-β/δ or PPAR-γ expression vectors. […] Luciferase activity was measured the next day using the Dual-Luciferase Reporter Assay System. […] Firefly: Renilla activity ratios were calculated for each condition and ratios from transcription factor-responsive reporter transfections were divided by ratios from negative control transfections to obtain relative luciferase unit, as described by the manufacturer. […]

IL-6 = IL-6 mRNA expression by quantitative RT-PCR in porcine RPE cells; type: cell-based; settings: T007907 10 μM
Description: as §1
Total RNA was extracted using the NucleoSpin® RNA kit according to manufacturer’s instructions. RT of 500 ng of RNA was performed using the SuperScript III Reverse Transcriptase following the manufacturer’s instructions. Five ng of cDNA were amplified using the SYBR GREEN real-time PCR method. PCR primers for target genes and housekeeping gene GAPDH were designed using Primer3Plus Bioinformatic software (Table 2). The RT-PCR using the StepOne Plus (Life Technologies, Carlsbad, CA, USA) consisted of incubation at 50°C for 5 min followed by 40 cycles of 95°C for 15 s and of 60°C for 1 min. The reaction was completed by a melt curve stage at 95°C for 15 s, 60°C for 1 min, 95°C for 15 s and a final step at 60°C for 15 s. The relative mRNA expression was calculated using the comparative threshold method (Ct-method) with GAPDH for normalization. All experimental conditions were processed in triplicate and each experiment was done at least 3 times.

PPAR-γ = biological target: T1, PPAR-γ (Homo sapiens, UniProt P37231); assay: Transactivation of over-expressed PPAR-γ, luciferase reporter in porcine RPE cells; type: cell-based, pig; parameters: a plasmid expressing each of the full-length PPAR isoforms; host or cells: primary porcine RPE cells; settings: for inhibition of PPAR-γ transactivation induced by TGZ: NBX 20 μM; for transactivation of over-expressed PPAR-γ by the compound alone: vs DMSO control, A2E 20 μM, NBX increasing concentrations
T1 sequence (P37231 1-505): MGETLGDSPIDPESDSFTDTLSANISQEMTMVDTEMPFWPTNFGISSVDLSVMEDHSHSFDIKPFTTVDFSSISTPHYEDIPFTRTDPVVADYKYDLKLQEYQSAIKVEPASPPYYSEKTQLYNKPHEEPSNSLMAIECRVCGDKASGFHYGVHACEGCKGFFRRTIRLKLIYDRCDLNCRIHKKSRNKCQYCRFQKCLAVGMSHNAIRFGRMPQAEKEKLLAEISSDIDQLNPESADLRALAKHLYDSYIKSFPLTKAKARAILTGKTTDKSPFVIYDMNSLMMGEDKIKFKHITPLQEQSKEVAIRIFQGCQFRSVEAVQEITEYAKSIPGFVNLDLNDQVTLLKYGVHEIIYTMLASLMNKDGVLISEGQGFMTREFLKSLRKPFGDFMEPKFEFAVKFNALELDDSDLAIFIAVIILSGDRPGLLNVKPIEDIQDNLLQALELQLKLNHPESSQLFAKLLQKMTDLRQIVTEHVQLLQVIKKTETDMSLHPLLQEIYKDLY
Description: Then the effects of A2E on the endogenous PPAR transactivation in porcine RPE cells were investigated by means of a luciferase assay. […] The level of transactivation of PPAR-α, -β/δ, or -γ isoforms by A2E was determined by co-transfection of porcine RPE cells with a plasmid expressing each of the full-length PPAR isoforms and a plasmid expressing luciferase under the control of the PPAR response element. […] All usual chemicals, primers, and HX531 were from Sigma (St. Louis, MO, USA). Reagents for cell culture, transfection and quantitative RT-PCR were from Thermo Fisher Scientific (Waltham, MA, USA). RNA extraction NucleoSpin® RNA kit was from Macherey Nagel (Düren, Germany). ECL prime and PVDF membrane were from Amersham GE Healthcare (Buckinghamshire, UK). Primary antibodies against the following proteins were used: GAPDH (Santa Cruz Biotechnology, Inc, Dallas, TX, USA); pAKT, AKT, pERK and ERK (Cell Signaling, Danvers, MA, USA). Secondary antibodies were from Jackson ImmunoResearch (Cambridgeshire, UK). […] Cignal Pathway Reporter Assay Kits were from QIAGEN (Frederick, MD, USA). The Dual-Luciferase Reporter Assay System was purchased from Promega (Madison, WI, USA). pcDNA 3.1 (+)-PPARα and pcDNA 3.1 (+)-PPARβ/δ (pig sequence) were purchased from Genscript (Piscataway, NJ, USA). pCMV6-XL4-PPARγ (human sequence) was purchased from Origene (Rockville, MD, USA).
After one week in culture, cells were trypsinized and transferred to a 96-well plate at a density of 6 × 10^4 cells/cm^2 in DMEM2%FCS. The next day, cells were transfected using the Cignal Reporter Assay Kits for PPAR, RXR, AP-1 and NF-κB, according to the manufacturer’s specifications. To measure the specific activation of PPAR isoforms, cells were also co-transfected with PPAR-α, PPAR-β/δ or PPAR-γ expression vectors. Transfection was performed with Lipofectamine and Plus Reagent in serum-free medium. 3 h after the transfection, the medium was replaced and treatments with the molecules to assay were performed. Luciferase activity was measured the next day using the Dual-Luciferase Reporter Assay System. The measurements were performed with a luminometer (Infinite M1000 from Tecan, Mannedorf, Switzerland). Firefly: Renilla activity ratios were calculated for each condition and ratios from transcription factor-responsive reporter transfections were divided by ratios from negative control transfections to obtain relative luciferase unit, as described by the manufacturer. At least 3 independent transfections were performed in triplicate for each condition.

Row | inhibition of PPAR-γ transactivation induced by TGZ (PPAR-γ; 1 μM of TGZ) | effect on over-expressed PPAR-γ transactivation induced by A2E (PPAR-γ; A2E 20 μM + NBX 20 μM) | inhibition of PPAR-γ transactivation induced by TGZ (PPAR-γ; TGZ 10 μM) | SMILES | inhibition of AP-1 transactivation induced by A2E (AP-1; A2E 20 μM, NBX 20 μM, HX531 5 μM) | reduction of IL-6 mRNA expression induced by A2E (IL-6; NBX 20 μM with A2E 30 μM, MK886 1 μM, GSK3787 1 μM, HX531 5 μM with A2E 20 μM) | transactivation of over-expressed PPAR-γ by the compound alone (PPAR-γ) | effect of the compound alone on AP-1 transactivation (AP-1; A2E 20 μM vs DMSO control) | effect of the compound alone on IL-6 mRNA expression (IL-6; vs DMSO control)
1 | partially inhibited | fully abolished | this effect was lost | CC(/C=C/C=C(C)/C=C/C(=O)O)=C\C=C\C=C(C)\C=C\C=C(C)\C=C\C(=O)O (stereo in doubt) [norbixin, 9’-cis-norbixin] | 82% | 145% | did not demonstrate any transactivation activity | – | –
2 | – | – | – | CC(C=CC1=C(C)CCCC1(C)C)=CC=CC(C)=Cc1cc(C=CC=C(C)C=CC2=C(C)CCCC2(C)C)cc[n+]1CCO [A2E, N-retinylidene-N-retinylethanolamine] | – | – | induced the transactivation | induced transactivation of AP-1 | induces the expression

Reference: publication PMC8507260, “A2E-induced inflammation and angiogenesis in RPE cells in vitro are modulated by PPAR-α, -β/δ, -γ, and RXR antagonists and by norbixin” (Aging (Albany NY), 2021)
